Assay results as given in patent publication US6875743B1, “Cell adhesion inhibitors” (Biogen, Inc., priority 1996, dated 2005).
Numbered stars: 1 amine (or outer) side, 2 acyl side, 3 side chain; on linkers, the order of the positions; unused ones are H or OH. Square brackets hold non-standard residues; d marks the D form. Peptide text beside a SMILES is read from it. * marks the point of attachment. ξ: configuration not given here. X1 = O=C(Cc1ccc(N[*:1])cc1)[*:2]; Tic = O=C(O)[CH]1Cc2ccccc2CN1; ξTic = O=C(O)C1Cc2ccccc2CN1; Nle = CCCC[CH](N)C(=O)O; PhAc = O=C(Cc1ccccc1)*; CO = O=C([*:1])[*:2]; ξNva = CCCC(N)C(=O)O; NHPh = c1ccc(N*)cc1

target: T1, VLA4 (Homo sapiens, UniProt P05556+P13612); test: Inhibition of VLA4-dependent adhesion to BSA-CS1; type: cell-based; conditions: binding of BCECF-labelled Ramos cells to BSA-CS1 coated wells, 2 mM MnCl2; read-out: IC50
T1 construct: endogenous in cells; host or cells: Ramos cells
T1 sequence (P13612 34-1032): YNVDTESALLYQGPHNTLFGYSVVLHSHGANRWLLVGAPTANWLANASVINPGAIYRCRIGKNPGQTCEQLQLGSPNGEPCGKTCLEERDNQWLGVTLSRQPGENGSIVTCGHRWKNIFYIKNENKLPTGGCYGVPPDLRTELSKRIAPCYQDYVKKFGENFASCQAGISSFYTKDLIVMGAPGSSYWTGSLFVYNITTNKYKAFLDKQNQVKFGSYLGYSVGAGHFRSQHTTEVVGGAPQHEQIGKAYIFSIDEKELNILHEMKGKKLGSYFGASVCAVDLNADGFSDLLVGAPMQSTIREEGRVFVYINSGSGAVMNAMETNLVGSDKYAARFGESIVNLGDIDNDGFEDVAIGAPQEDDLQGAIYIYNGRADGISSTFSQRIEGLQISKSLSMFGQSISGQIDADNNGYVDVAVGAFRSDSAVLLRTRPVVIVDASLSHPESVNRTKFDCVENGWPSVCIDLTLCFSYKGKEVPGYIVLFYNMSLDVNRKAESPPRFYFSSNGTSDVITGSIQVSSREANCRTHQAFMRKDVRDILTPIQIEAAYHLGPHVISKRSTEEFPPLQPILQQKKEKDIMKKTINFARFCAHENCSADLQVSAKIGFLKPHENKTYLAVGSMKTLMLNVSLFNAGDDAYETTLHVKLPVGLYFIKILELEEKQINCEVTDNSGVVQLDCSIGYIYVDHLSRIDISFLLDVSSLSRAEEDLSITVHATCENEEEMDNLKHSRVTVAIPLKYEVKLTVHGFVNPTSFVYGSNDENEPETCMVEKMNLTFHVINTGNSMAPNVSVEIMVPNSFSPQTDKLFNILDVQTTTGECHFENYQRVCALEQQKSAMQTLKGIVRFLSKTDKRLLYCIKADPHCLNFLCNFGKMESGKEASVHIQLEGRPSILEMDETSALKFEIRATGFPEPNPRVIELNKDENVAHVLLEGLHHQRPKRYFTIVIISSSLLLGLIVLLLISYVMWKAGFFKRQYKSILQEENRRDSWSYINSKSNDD
T1 sequence (P05556 21-798): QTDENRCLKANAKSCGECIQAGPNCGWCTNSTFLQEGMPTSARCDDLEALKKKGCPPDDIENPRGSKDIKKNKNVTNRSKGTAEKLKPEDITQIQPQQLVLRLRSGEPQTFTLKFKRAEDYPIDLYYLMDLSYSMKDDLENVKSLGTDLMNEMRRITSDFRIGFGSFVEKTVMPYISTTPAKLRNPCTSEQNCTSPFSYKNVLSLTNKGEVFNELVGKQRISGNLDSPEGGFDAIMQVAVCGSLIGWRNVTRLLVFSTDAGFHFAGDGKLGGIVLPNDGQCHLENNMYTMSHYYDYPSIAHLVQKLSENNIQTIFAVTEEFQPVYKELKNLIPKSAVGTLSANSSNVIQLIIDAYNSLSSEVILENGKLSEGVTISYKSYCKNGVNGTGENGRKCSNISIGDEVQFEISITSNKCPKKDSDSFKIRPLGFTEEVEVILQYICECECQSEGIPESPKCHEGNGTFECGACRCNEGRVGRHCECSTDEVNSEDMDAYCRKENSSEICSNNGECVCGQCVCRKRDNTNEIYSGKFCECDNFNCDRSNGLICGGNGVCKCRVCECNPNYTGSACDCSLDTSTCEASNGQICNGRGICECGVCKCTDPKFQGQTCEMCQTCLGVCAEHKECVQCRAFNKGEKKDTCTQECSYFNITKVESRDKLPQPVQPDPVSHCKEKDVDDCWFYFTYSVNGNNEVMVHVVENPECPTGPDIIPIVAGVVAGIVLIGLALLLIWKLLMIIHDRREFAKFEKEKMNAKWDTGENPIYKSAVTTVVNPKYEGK
Description: For example, the cell adhesion inhibitory activity of these compounds may be measured by determining the concentration of inhibitor required to block the binding of VLA-4-expressing cells to fibronectin- or CS1-coated plates. In this assay microtiter wells are coated with either fibronectin (containing the CS-1 sequence) or CS-1. If CS-1 is used, it must be conjugated to a carrier protein, such as bovine serum albumin, in order to bind to the wells. Once the wells are coated, varying concentrations of the test compound are then added together with appropriately labelled, VLA-4-expressing cells. Alternatively, the test compound may be added first and allowed to incubate with the coated wells prior to the addition of the cells. The cells are allowed to incubate in the wells for at least 30 minutes. Following incubation, the wells are emptied and washed. Inhibition of binding is measured by quantitating the fluorescence or radioactivity bound to the plate for each of the various concentrations of test compound, as well as for controls containing no test compound.
VLA-4-expressing cells that may be utilized in this assay include Ramos cells, Jurkat cells, A375 melanoma cells, as well as human peripheral blood lymophocytes (PBLs). The cells used in this assay may be fluorescently or radioactively labelled.
This assay was used to assess the potency of VLA4-directed inhibitory compounds of this invention.
We dissolved BSA-SMCC (Pierce Chemical, Rockford, Ill.; Catalog #77115) in H2O at a concentration of 10 mg/mL. [SEQ ID NO:4]: […](“Cys-Tyr-CS1 peptide”), which we synthesized by conventional solid phase chemistry and purified by HPLC, was dissolved in 10 mM HEPES pH 5, 50 mM NaCl and 0.1 mM EDTA also at a concentration of 10 mg/mL. We then mixed 500 μL of BSA-SMCC, 250 μL of Cys-Tyr-CS1 peptide and 75 μL of 1 mM HEPES pH 7.5 and allowed the conjugation reaction to proceed for 30 minutes. We stopped the reaction by adding 1 μL of beta-mercaptoethanol. Samples were analyzed for cross-linking by SDS-PAGE.
We coated the wells of a Linbro titertek polystyrene 96-well flat bottom plate (Flow Laboratories, Maclean, Va.; catalog #76-231-05) with 100 μL of the above-described BSA-CS1 solution diluted to 1 μg/mL in 0.05 M NaHCO3 (15 mM NaHCO3, 35 mM Na2CO3) pH 9.2. Some wells were not coated with CS1 in order to assess non-specific cell binding (NSB). The plate was then incubated overnight at 4° C.
Following this incubation, the contents of the wells were removed by inverting and blotting the plate. All of the wells were then blocked with 100 μL of 1% BSA in PBS, 0.02% NaN3, for a minimum of one hour at room temperature.
Ramos cells are grown, maintained and labelled in RPMI 1640 culture medium containing 1% BSA. Just prior to running the assay, we added 2′,7′-bis-(2-carboxyethyl)-5 (and -6) carboxyfluorescein acetoxymethyl ester (“BCECF-AM”; Molecular Probes Inc., Eugene, Oreg.; catalog #B-1150) to a final concentration of 2 μM to a culture of Ramos cells (4×10^6 cells/mL). We incubated the cells for 20 minutes at 37° C.
Following labelling, the cells were washed twice in assay buffer (24 mM TRIS, 137 mM NaCl, 2.7 mM KCl, pH 7.4, containing 0.1% BSA and 2 mM glucose) to remove any cations originating from the culture medium. The cells were then resuspended in assay buffer to 4×10^6 cells/mL and 2 mM MnCl2 was added to upregulate VLA4 on the surface of the cells.
Immediately prior to running the assay, we removed the BSA blocking solution from the 96-well plates and washed the wells with 100 μL of assay buffer. We then added to each well 25 μL of test cell adhesion inhibitory compound at 2× the final concentration and 25 μL of the labelled Ramos cells. […] Each concentration of compound was tested in triplicate. The compound and cells are allowed to incubate for 30 minutes at room temperature.

Structure (SMILES) | IC50
Cc1ccccc1NC(=O)Nc1ccc(CC(=O)N[C@H](C(=O)N[C@@H](CC(=O)O)C(=O)N[C@H](C(N)=O)C(C)C)[C@@H](C)O)cc1 [Compound 254] | < 50 nM
CSCC[C@H](NC(=O)Cc1ccc(NC(=O)Nc2ccccc2C)cc1)C(=O)N[C@@H](CC(=O)O)C(=O)N[C@@H](Cc1c[nH]c2ccccc12)C(N)=O [Compound 228] | < 50 nM
CSCC[C@H](NC(=O)Cc1ccc(NC(=O)Nc2ccccc2C)cc1)C(=O)N[C@@H](CC(=O)O)C(=O)N[C@@H](CCC(=O)O)C(N)=O [Compound 223] | < 50 nM
CC(C)C[C@H](NC(=O)C1C2CC3CC(C2)CC1C3)C(=O)N[C@@H](CC(=O)O)C(=O)N[C@H](C(=O)O)C(C)C (some centres unmarked) [Compound 398] | > 10000 nM
COc1ccc2cc(C(C)C(=O)N[C@@H](CC(C)C)C(=O)N[C@@H](CC(=O)O)C(=O)N[C@H](C(=O)O)C(C)C)ccc2c1 (some centres unmarked) [Compound 394] | > 10000 nM
Cc1ccccc1NC(=O)Nc1ccc(CC(=O)N[C@H](CC(C)C)C(=O)N[C@@H](CC(=O)O)C(=O)N[C@H](C(N)=O)C(C)C)cc1 [Compound 288] | < 50 nM
CC(C)C(NC(=O)C(CC(=O)O)NC(=O)C(CC1CCCCC1)NC(=O)c1cc2ccccc2cn1)C(=O)O (centres unmarked) [Compound 85] | > 10000 nM
CCn1cc(C(=O)N[C@@H](CC(C)C)C(=O)N[C@@H](CC(=O)O)C(=O)N[C@H](C(=O)O)C(C)C)c(=O)c2ccc(C)nc21 [Compound 403] | > 10000 nM
CC(C)C[C@H](NC(=O)c1csc(-c2cccnc2)n1)C(=O)N[C@@H](CC(=O)O)C(=O)N[C@H](C(=O)O)C(C)C [Compound 375] | 50 to 10000 nM
CNC(=O)C(C)(C)NC(=O)[C@H](CC(=O)O)NC(=O)[C@H](CC(C)C)NC(=O)c1ccc2ccccc2n1 [Compound 185] | > 10000 nM
CCCc1ccc(C(=O)N[C@@H](CC(C)C)C(=O)N[C@@H](CC(=O)O)C(=O)N[C@H](C(=O)O)C(C)C)cc1 [Compound 374] | > 10000 nM
CCCCC(NC(=O)C(NC(=O)C(CC(=O)O)NC(=O)C(CC(C)C)NC(=O)Cc1ccccc1)C(C)C)C(=O)O (centres unmarked) [Compound 43] (PhAc-LDV[Nle]-OH; configuration not given here) | 50 to 10000 nM
Cc1ccccc1NC(=O)Nc1ccc(CC(=O)N2CCC[C@H]2C(=O)N[C@@H](CC(=O)O)C(=O)N[C@@H](CCC(=O)O)C(N)=O)cc1 [Compound 245] | < 50 nM
CSCC[C@H](NC(=O)Cc1ccc(NC(=O)Nc2ccccc2C)cc1)C(=O)N[C@@H](CCC(=O)O)C(=O)N[C@H](C(N)=O)C(C)C [Compound 309] | < 50 nM
CNC(=O)[C@@H](CC(C)C)NC(=O)[C@H](CC(=O)O)NC(=O)[C@@H]1CCCN1C(=O)Cc1ccc(NC(=O)Nc2ccccc2C)cc1 [Compound 409] | 50 to 10000 nM
Cc1ccccc1NC(=O)Nc1ccc(CC(=O)N[C@H](C(=O)N[C@@H](CCC(=O)O)C(=O)N[C@@H](CC(=O)O)C(N)=O)[C@@H](C)O)cc1 [Compound 314] | < 50 nM
CC(C)C[C@H](NC(=O)Nc1cnc2ccccc2n1)C(=O)N[C@@H](CC(=O)O)C(=O)N[C@H](C(=O)O)C(C)C [Compound 380] | > 10000 nM
CNC(=O)[C@@H](CC(C)C)NC(=O)[C@H](CCC(=O)O)NC(=O)[C@@H]1CCCN1C(=O)Cc1ccc(NC(=O)Nc2ccccc2C)cc1 [Compound 414] | 50 to 10000 nM
CC(C)CC(NC(=O)Cc1ccc(NC(=O)Nc2ccccc2)cc1)C(=O)NC(CC(=O)O)C(=O)NC(C(=O)N1CCCC1C(N)=O)C(C)C (centres unmarked) [Compound 199] ({NHPh-CO}-[X1]LDVP-NH2; configuration not given here) | 50 to 10000 nM
CC(C)C[C@H](NC(=O)c1ccc2c(c1)OCO2)C(=O)N[C@@H](CC(=O)O)C(=O)N[C@H](C(=O)O)C(C)C [Compound 406] | > 10000 nM
Cc1ccccc1NC(=O)Nc1ccc(CC(=O)N[C@H](CC(C)C)C(=O)N[C@@H](CC(=O)O)C(=O)N[C@@H](Cc2c[nH]c3ccccc23)C(N)=O)cc1 [Compound 295] | < 50 nM

Structure (SMILES) | IC50
CC(C)CC(NC(=O)C1Cc2ccccc2CN1)C(=O)NC(CC(=O)O)C(=O)O (stereo not drawn) [Compound 23] (H-[Tic]-Leu-Asp-OH; configuration not given here) | > 10000 nM
COC(=O)C[C@H](NC(=O)[C@H](CC(C)C)N(C)CCCc1ccccc1)C(=O)N[C@H](C(=O)OC)C(C)C [Compound 112] | > 10000 nM
Cc1ccccc1NC(=O)Nc1ccc(CC(=O)N[C@@H](CC(C)C)C(=O)N[C@@H](CC(=O)O)C(=O)N[C@@H](CCC(=O)O)C(N)=O)cc1 [Compound 234] | < 50 nM
COC(=O)[C@@H](NC(=O)[C@H](CC(=O)O)N1CCC(NC(=O)OCc2ccccc2)C1=O)C(C)C (some centres unmarked) [Compound 334] | > 10000 nM
CCCC(NC(=O)Cc1ccccc1)C(=O)N[C@@H](CC(=O)O)C(=O)N[C@H](C(=O)NC)C(C)C (stereo partly drawn) [Compound 49] (PhAc-[ξNva]-Asp-Val-NHMe) | > 10000 nM
Cc1ccccc1NC(=O)Nc1ccc(CC(=O)N[C@@H](CCC(N)=O)C(=O)N[C@@H](CC(=O)O)C(=O)N[C@H](CC(C)C)C(N)=O)cc1 [Compound 300] | < 50 nM
Cc1ccccc1NC(=O)Nc1ccc(CC(=O)NC(CCC(N)=O)C(=O)NC(CC(=O)O)C(=O)NC(CO)C(N)=O)cc1 (centres unmarked) [Compound 307] | < 50 nM
CC(C)[C@H](NC(=O)[C@H](CC(=O)O)NC(=O)C(C)(C)NC(=O)c1cc2ccccc2cn1)C(=O)O [Compound 82] | > 10000 nM
Cc1ccccc1NC(=O)Nc1ccc(CC(=O)N[C@@H](CC(C)C)C(=O)N[C@@H](CC(=O)O)C(=O)N[C@@H](Cc2c[nH]c3ccccc23)C(N)=O)cc1 [Compound 239] | < 50 nM
Cc1ccccc1NC(=O)Nc1ccc(CC(=O)NC(CC(C)C)C(=O)NC(CC(=O)O)C(=O)NC(C(=O)N2CCOCC2)C(C)C)cc1 (centres unmarked) [Compound 329] | < 50 nM
CCC(C)C(NC(=O)C(CC(=O)O)NC(=O)C(CC(C)C)NC(=O)Cc1ccccc1)C(=O)NC (stereo not drawn) [Compound 55] (PhAc-Leu-Asp-Ile-NHMe; configuration not given here) | > 10000 nM
Cc1ccccc1NC(=O)Nc1ccc(CC(=O)N[C@@H](CCC(=O)O)C(=O)N[C@@H](CC(=O)O)C(=O)N[C@H](C(N)=O)C(C)C)cc1 [Compound 265] | < 50 nM
CSCC[C@H](NC(=O)[C@H](CC(=O)O)NC(=O)[C@H](CC(C)C)NC(=O)Cc1ccc(NC(=O)Nc2ccccc2C)cc1)C(N)=O [Compound 236] | < 50 nM
CC(C)C[C@H](NC(=O)c1csc(-c2ccncc2)n1)C(=O)N[C@@H](CC(=O)O)C(=O)N[C@H](C(=O)O)C(C)C [Compound 376] | > 10000 nM
Cc1ccccc1NC(=O)Nc1ccc(CC(=O)N2CCC[C@H]2C(=O)N[C@@H](CC(=O)O)C(=O)O)cc1 [Compound 342] | > 10000 nM
Cc1ccccc1NC(=O)Nc1ccc(CC(=O)N[C@@H](CC(C)C)C(=O)N[C@@H](CC(=O)O)C(=O)N[C@H](CCC(=O)O)C(N)=O)cc1 [Compound 238] | < 50 nM
Cc1ccccc1NC(=O)Nc1ccc(CC(=O)N2CCC[C@H]2C(=O)N[C@@H](CC(=O)O)C(=O)N[C@H](CC(N)=O)C(N)=O)cc1 [Compound 248] | < 50 nM
CSCC[C@H](NC(=O)Cc1ccc(NC(=O)Nc2ccccc2C)cc1)C(=O)N[C@@H](CC(=O)O)C(=O)N[C@@H](CC(C)C)C(N)=O [Compound 220] | < 50 nM
CC(C)C[C@H](NC(=O)[C@H](CC(=O)O)NC(=O)[C@H](CC(C)C)NC(=O)C1Cc2ccccc2CN1)C(=O)O (some centres unmarked) [Compound 90] (H-[ξTic]LDL-OH) | > 10000 nM
Cc1ccccc1NC(=O)Nc1ccc(CC(=O)N2CCC[C@H]2C(=O)N[C@@H](CC(=O)O)C(=O)N[C@@H](CC(C)C)C(N)=O)cc1 [Compound 242] | < 50 nM
